The values below are quoted from earlier work in US20070134244A1, “Combination treatment for pathologic ocular angiogenesis” (Alcon, Inc., priority 2005, published 2007).

The subject of the data set is xenotransplant models of colon cancer. The following applies: xenotransplant models of colon cancer in nude (athymic) mice; Presta et al. 1997.

For bevacizumab, the metastatic disease progression result is given as “inhibition of metastatic disease progression” and the microvascular growth entry is on record as “reduction of microvascular growth”.
